According to ChEMBL document CHEMBL5360544, “Design, synthesis, and biological evaluation of diaryl heterocyclic derivatives targeting tubulin polymerization with potent anticancer activities” (Eur J Med Chem, 2023):

Key:
[1] = test system: HCT-116; assay: Antiproliferative activity against human HCT-116 cells incubated for 48 hrs by CCK-8 assay; type: functional, cell-based; details: HCT-116, 48 h
[2] = Antiproliferative activity against human HEK293T cells incubated for 48 hrs by CCK-8 assay; type: toxicity, cell-based, HEK-293T
[3] = test system: MDA-MB-231; assay: Antiproliferative activity against human MDA-MB-231 cells incubated for 48 hrs by CCK-8 assay; type: functional, cell-based; details: MDA-MB-231, 48 h
[4] = test system: SW480; assay: Antiproliferative activity against human SW480 cells incubated for 48 hrs by CCK-8 assay; type: functional, cell-based; details: SW480, 48 h
[5] = test system: HeLa; assay: Antiproliferative activity against human HeLa cells incubated for 48 hrs by CCK-8 assay; type: functional, cell-based
[6] = test system: HepG2; assay: Antiproliferative activity against human HepG2 cells incubated for 48 hrs by CCK-8 assay; type: functional, cell-based; details: HepG2, 48 h

IC50 [1] [µM] | IC50 [3] [µM] | IC50 [4] [µM] | IC50 [5] [µM] | IC50 [6] [µM] | Structure (SMILES) | IC50 at 48 h [2] [µM]
> 64 |  |  |  |  | COc1cc(-c2ccnn2-c2ccc(F)cc2)cc(OC)c1OC | 
> 64 |  |  |  |  | COc1ccc(-c2cnc(N)nc2-c2cc(OC)c(OC)c(OC)c2)cc1[N+](=O)[O-] | 
> 64 |  |  |  |  | COc1cc(-c2ccnn2-c2ccc(Cl)cc2)cc(OC)c1OC | 
> 64 |  |  |  |  | COc1ccc(-c2cnc(N)nc2-c2cc(OC)c(OC)c(OC)c2)cc1Cl | 
3.04 | 4.69 | 4.32 | 11.2 | 0.57 | CCn1c2ccccc2c2cc(-c3cnc(N)nc3-c3cc(OC)c(OC)c(OC)c3)ccc21 | > 80
> 64 |  |  |  |  | COc1ccc(-n2nccc2-c2cc(OC)c(OC)c(OC)c2)cn1 | 
> 64 |  |  |  |  | COc1cc(-c2ccnn2-c2ccc(CO)cc2)cc(OC)c1OC | 
> 64 |  |  |  |  | COc1cc(-c2nc(N)ncc2-c2cccc(C)c2)cc(OC)c1OC | 
23.9 | > 64 | > 64 | > 64 | 15.2 | COc1cc(-c2nc(N)ncc2-c2ccc(C)c(C)c2)cc(OC)c1OC | > 80
> 64 |  |  |  |  | COc1cc(-c2ccnn2-c2cccnc2)cc(OC)c1OC | 
> 64 |  |  |  |  | COc1cc(-c2ccnn2-c2ccc(Br)cc2)cc(OC)c1OC | 
> 64 |  |  |  |  | COc1cc(-c2nc(N)ncc2-c2cn(S(=O)(=O)c3ccccc3)c3ccccc23)cc(OC)c1OC | 
17 | 7.29 | 37.9 | 46.6 | 10.3 | COc1cc(-c2ccnn2-c2ccc(C)cc2)cc(OC)c1OC | > 80
> 64 |  |  |  |  | COc1cc(-c2nc(N)ncc2-c2c[nH]c3ccccc23)cc(OC)c1OC | 
> 64 |  |  |  |  | COc1cc(-c2nc(N)ncc2-c2ccc3c(c2)OCCO3)cc(OC)c1OC | 
> 64 |  |  |  |  | COc1cc(-c2nc(N)ncc2-c2ccc3c(cnn3C)c2)cc(OC)c1OC | 
> 64 |  |  |  |  | COc1cc(-c2ccnn2-c2cccc(N)c2)cc(OC)c1OC | 
13 | 10.6 | 58.4 | 32.3 | 34.1 | COc1ccc(-c2cnc(N)nc2-c2cc(OC)c(OC)c(OC)c2)cc1F | > 80
> 64 |  |  |  |  | COc1cc(-c2ccnn2-c2ccc(S(C)(=O)=O)cc2)cc(OC)c1OC | 
> 64 | > 64 | 39.7 | 25.2 | 45.8 | COc1cc(-c2nc(N)ncc2-c2ccc(C)cc2)cc(OC)c1OC | > 80

IC50 [1] [µM] | IC50 [3] [µM] | IC50 [4] [µM] | IC50 [5] [µM] | IC50 [6] [µM] | Structure (SMILES) | IC50 at 48 h [2] [µM]
> 64 |  |  |  |  | COc1cc(-c2cnc(N)nc2-c2cc(OC)c(OC)c(OC)c2)cc(OC)c1OC | 
7.45 | 11.6 | 52.2 | > 64 | 17 | COc1ccc(-c2cnc(N)nc2-c2cc(OC)c(OC)c(OC)c2)cc1N | > 80
> 64 |  |  |  |  | COc1cc(-c2ccnn2-c2ccc(C(=O)O)cc2)cc(OC)c1OC | 
> 64 |  |  |  |  | COc1cc(-c2cnc(N)nc2-c2cc(OC)c(OC)c(OC)c2)ccc1O | 
> 64 |  |  |  |  | COc1cc(-c2ccnn2-c2ccc([N+](=O)[O-])cc2)cc(OC)c1OC | 
> 64 |  |  |  |  | CCOc1cc(-c2cnc(N)nc2-c2cc(OC)c(OC)c(OC)c2)ccc1Cl | 
> 64 |  |  |  |  | COC(=O)c1ccc(-c2cnc(N)nc2-c2cc(OC)c(OC)c(OC)c2)cc1 | 
> 64 |  |  |  |  | COc1cccc(-c2cnc(N)nc2-c2cc(OC)c(OC)c(OC)c2)c1 | 
> 64 |  |  |  |  | COc1cc(-c2ccnn2-c2ccc(C)c(C)c2)cc(OC)c1OC | 
16.7 | 14 | > 64 | > 64 | 2.04 | COCc1ccc(-c2cnc(N)nc2-c2cc(OC)c(OC)c(OC)c2)cc1 | > 80
14.7 | > 64 | 5.05 | 7.54 | 30.8 | COc1cc(-c2nc(N)ncc2-c2ccc3c(ccn3C)c2)cc(OC)c1OC | > 80
> 64 |  |  |  |  | COc1cc(-c2ccnn2-c2nccs2)cc(OC)c1OC | 
> 64 |  |  |  |  | COc1cc(-c2nc(N)ncc2-c2ccccc2)cc(OC)c1OC | 
3.87 | 27.1 | 36.8 | 19.3 | 1.37 | COc1cc(-c2nc(N)ncc2-c2ccc3cc[nH]c3c2)cc(OC)c1OC | > 80
> 64 |  |  |  |  | COc1ccc(-n2nccc2-c2cc(OC)c(OC)c(OC)c2)cc1 | 
38.5 |  |  |  |  | COc1cc(-c2nc(N)ncc2-c2ccc(N)cc2)cc(OC)c1OC | 
12.7 | 22.4 | > 64 | 60.5 | 29.9 | COc1ccc(-c2cnc(N)nc2-c2cc(OC)c(OC)c(OC)c2)cc1 | > 80
> 64 |  |  |  |  | COc1cc(-c2nc(N)ncc2-c2ccccc2C)cc(OC)c1OC | 
> 64 | > 64 | > 64 | > 64 | > 64 | COc1ccc(-c2cnc(NC(C)=O)nc2-c2cc(OC)c(OC)c(OC)c2)cc1N | > 80
> 64 |  |  |  |  | COc1cc(-c2ccnn2-c2ccc(O)cc2)cc(OC)c1OC | 

IC50 [1] [µM] | IC50 [3] [µM] | IC50 [4] [µM] | IC50 [5] [µM] | IC50 [6] [µM] | Structure (SMILES) | IC50 at 48 h [2] [µM]
> 64 |  |  |  |  | COc1cc(-c2ccnn2-c2cccc3ccccc23)cc(OC)c1OC | 
> 64 |  |  |  |  | COc1cc(-c2nc(N)ncc2-c2ccc([N+](=O)[O-])cc2)cc(OC)c1OC | 
> 64 |  |  |  |  | COc1cc(-c2nc(N)ncc2-c2ccc(Cl)cc2)cc(OC)c1OC | 
> 64 |  |  |  |  | COc1cc(-c2nc(N)ncc2-c2ccc(S(C)(=O)=O)cc2)cc(OC)c1OC | 
> 64 |  |  |  |  | COc1cc(-c2ccnn2-c2ccc(C#N)cc2)cc(OC)c1OC | 
> 64 |  |  |  |  | COC(=O)c1ccc(-n2nccc2-c2cc(OC)c(OC)c(OC)c2)cc1 | 
11.8 | > 64 | > 64 | 37.8 | 52.1 | COc1cc(-c2nc(N)ncc2-c2ccc(SC)cc2)cc(OC)c1OC | > 80
> 64 |  |  |  |  | COc1cc(-c2nc(N)ncc2-c2ccc(F)cc2)cc(OC)c1OC | 
4.22 | 14.5 | 5.99 | 17.9 | 0.25 | COc1cc(-c2nc(N)ncc2-c2cc3ccccc3s2)cc(OC)c1OC | > 80
> 64 |  |  |  |  | COc1cc(-c2ccnn2-c2cccc([N+](=O)[O-])c2)cc(OC)c1OC | 
> 64 |  |  |  |  | COc1cc(-c2nc(N)ncc2-c2cnc(N)nc2)cc(OC)c1OC | 
> 64 |  |  |  |  | COc1cc(-c2ccnn2-c2ccccc2[N+](=O)[O-])cc(OC)c1OC | 
> 64 |  |  |  |  | COc1cc(-c2nc(N)ncc2-c2ccc(CO)cc2)cc(OC)c1OC | 
> 64 |  |  |  |  | COc1ccc(-c2cnc(N)nc2-c2cc(OC)c(OC)c(OC)c2)cc1C=O | 
> 64 |  |  |  |  | COc1cc(-c2ccnn2-c2ccc(OCc3ccccc3)cc2)cc(OC)c1OC | 
> 64 |  |  |  |  | COc1cc(-c2ccnn2-c2ccc(S(N)(=O)=O)cc2)cc(OC)c1OC | 
14.7 | 8.21 | 28.2 | 23.4 | 5.64 | COc1cc(-c2ccnn2-c2ccc(I)cc2)cc(OC)c1OC | > 80
> 64 |  |  |  |  | CNS(=O)(=O)Cc1ccc(-n2nccc2-c2cc(OC)c(OC)c(OC)c2)cc1 | 
